{"source": "patent EP0908457B1", "about": "“3-(1,2-benzisothiazol- and isoxazol-5-Y1)-2,4(1H,3H)-pyrimidinedione or thione and 3-(1,2-benzisothiazol- and isoxazol-5-y1)-4(3H)-pyrimidinone or thione herbicidal agents” (BASF AKTIENGESELLSCHAFT, priority 1997, dated 1999)", "key": {"[1]": {"test_system": "Echinochloa oryzoides (Ard.) Fritsch.", "assay": "Preemergence weed control under flooded paddy conditions, ECHORC (Watergrass (Calif.)); for herbicidal effect rating, ECHORC: meaning of each grade not given here", "type": "in vivo", "settings": "flooded paddy, rated three to four weeks after treatment; for herbicidal effect rating, ECHORC: preemergence weeds; for ECHORC herbicidal effect rating: preemergence"}, "Sagittaria pygmaea, L.": {"test_system": "Sagittaria pygmaea, L.", "assay": "Preemergence weed control under flooded paddy conditions, SAGPY (Arrowhead (Pygmaea)); for herbicidal effect rating, SAGPY: meaning of each grade not given here", "type": "in vivo", "settings": "flooded paddy, rated three to four weeks after treatment; for herbicidal effect rating, SAGPY: preemergence weeds; for SAGPY herbicidal effect rating: preemergence"}, "[2]": {"test_system": "Oryza sativa, (L.) Tebonnet", "assay": "Rice tolerance to post-transplant applications under flooded paddy conditions (Example 187), ORYSAT (Rice, Tebonnet)", "settings": "rated three to four weeks after treatment"}, "[3]": {"test_system": "Cyperus serotinus, Rottb.", "assay": "Preemergence weed control under flooded paddy conditions, CYPSE (Flatsedge); for herbicidal effect rating, CYPSE: meaning of each grade not given here", "type": "in vivo", "settings": "rated three to four weeks after treatment; for herbicidal effect rating, CYPSE: preemergence weeds; for CYPSE herbicidal effect rating: preemergence"}, "[4]": {"test_system": "Monochoria vaginalis, Presl.", "assay": "Preemergence weed control under flooded paddy conditions, MOOVA (Monochoria); for herbicidal effect rating, MOOVA: meaning of each grade not given here", "type": "in vivo", "settings": "flooded paddy, rated three to four weeks after treatment; for herbicidal effect rating, MOOVA: preemergence weeds; for MOOVA herbicidal effect rating: preemergence"}, "Cyperus iria": {"test_system": "Cyperus iria", "assay": "Preemergence weed control under flooded paddy conditions, CYPIR (Rice Flatsedge); for herbicidal effect rating, CYPIR: meaning of each grade not given here", "type": "in vivo", "settings": "flooded paddy, rated three to four weeks after treatment; for herbicidal effect rating, CYPIR: preemergence weeds; for CYPIR herbicidal effect rating: preemergence"}}, "data": [{"compound": "CC(C)=CCOC(=O)COc1ccc(C)cc1-c1nsc2ccc(-n3c(=O)cc(C(F)(F)F)n(C)c3=O)cc12", "note": "[Example 187, 3-Methyl-2-butenyl {{2-{5-[3,6-dihydro-3-methyl-2,6-dioxo-4-(trifluoromethyl)-1(2H)-pyrimidinyl]-1,2-benzisothiazol-3-yl}-p-tolyl}oxy}acetate]", "values": [{"measurement": "herbicidal effect rating, ECHORC", "setting": "[1]; 0.0313 kg/ha", "value": 0.0}, {"measurement": "herbicidal effect rating, ECHORC", "setting": "[1]; 0.0625 kg/ha", "value": 2.0}, {"measurement": "herbicidal effect rating, ECHORC", "setting": "[1]; 0.1250 kg/ha", "value": 6.0}, {"measurement": "herbicidal effect rating, ECHORC", "setting": "[1]; 0.2500 kg/ha", "value": 9.0}, {"measurement": "herbicidal effect rating, SAGPY", "setting": "Sagittaria pygmaea, L.; 0.0313 kg/ha", "value": 0.0}, {"measurement": "herbicidal effect rating, SAGPY", "setting": "Sagittaria pygmaea, L.; 0.0625 kg/ha", "value": 0.0}, {"measurement": "herbicidal effect rating, SAGPY", "setting": "Sagittaria pygmaea, L.; 0.1250 kg/ha", "value": 0.0}, {"measurement": "herbicidal effect rating, SAGPY", "setting": "Sagittaria pygmaea, L.; 0.2500 kg/ha", "value": 0.0}, {"measurement": "herbicidal effect rating, ORYSAT (rice tolerance)", "setting": "[2]; 0.0313 kg/ha", "value": 2.0}, {"measurement": "herbicidal effect rating, ORYSAT (rice tolerance)", "setting": "[2]; 0.0625 kg/ha", "value": 3.0}, {"measurement": "herbicidal effect rating, ORYSAT (rice tolerance)", "setting": "[2]; 0.1250 kg/ha", "value": 3.0}, {"measurement": "herbicidal effect rating, ORYSAT (rice tolerance)", "setting": "[2]; 0.2500 kg/ha", "value": 6.0}, {"measurement": "herbicidal effect rating, CYPSE", "setting": "[3]; 0.0313 kg/ha", "value": 0.0}, {"measurement": "herbicidal effect rating, CYPSE", "setting": "[3]; 0.0625 kg/ha", "value": 0.0}, {"measurement": "herbicidal effect rating, CYPSE", "setting": "[3]; 0.1250 kg/ha", "value": 0.0}, {"measurement": "herbicidal effect rating, CYPSE", "setting": "[3]; 0.2500 kg/ha", "value": 0.0}, {"measurement": "herbicidal effect rating, MOOVA", "setting": "[4]; 0.0313 kg/ha", "value": 8.0}, {"measurement": "herbicidal effect rating, MOOVA", "setting": "[4]; 0.0625 kg/ha", "value": 9.0}, {"measurement": "herbicidal effect rating, MOOVA", "setting": "[4]; 0.1250 kg/ha", "value": 9.0}, {"measurement": "herbicidal effect rating, MOOVA", "setting": "[4]; 0.2500 kg/ha", "value": 9.0}, {"measurement": "herbicidal effect rating, CYPIR", "setting": "Cyperus iria; 0.0313 kg/ha", "value": 0.0}, {"measurement": "herbicidal effect rating, CYPIR", "setting": "Cyperus iria; 0.0625 kg/ha", "value": 0.0}, {"measurement": "herbicidal effect rating, CYPIR", "setting": "Cyperus iria; 0.1250 kg/ha", "value": 2.0}, {"measurement": "herbicidal effect rating, CYPIR", "setting": "Cyperus iria; 0.2500 kg/ha", "value": 4.0}]}, {"compound": "Cn1c(C(F)(F)F)cc(=O)n(-c2ccc3snc(COC(CF)CF)c3c2)c1=O", "note": "[Example 207, 3-{3-{[2-Fluoro-1-(fluoromethyl)ethoxy]methyl}-1,2-benzisothiazol-5-yl}-1-methyl-6-(trifluoromethyl)-2,4(1H,3H)-pyrimidinedione]", "values": [{"measurement": "herbicidal effect rating, ECHORC", "setting": "[1]; 0.2500 kg/ha", "value": 5.5}, {"measurement": "ECHORC herbicidal effect rating", "setting": "[1]; Rate 0.0313 kg/ha", "value": 1.0}, {"measurement": "ECHORC herbicidal effect rating", "setting": "[1]; Rate 0.0625 kg/ha", "value": 1.5}, {"measurement": "ECHORC herbicidal effect rating", "setting": "[1]; Rate 0.1250 kg/ha", "value": 2.0}, {"measurement": "herbicidal effect rating, SAGPY", "setting": "Sagittaria pygmaea, L.; 0.2500 kg/ha", "value": 1.0}, {"measurement": "SAGPY herbicidal effect rating", "setting": "Sagittaria pygmaea, L.; Rate 0.0313 kg/ha", "value": 0.0}, {"measurement": "SAGPY herbicidal effect rating", "setting": "Sagittaria pygmaea, L.; Rate 0.0625 kg/ha", "value": 0.0}, {"measurement": "SAGPY herbicidal effect rating", "setting": "Sagittaria pygmaea, L.; Rate 0.1250 kg/ha", "value": 0.0}, {"measurement": "herbicidal effect rating, ORYSAT (rice tolerance)", "setting": "[2]; 0.2500 kg/ha", "value": 7.5}, {"measurement": "ORYSAT herbicidal effect rating", "setting": "[2]; Rate 0.0313 kg/ha", "value": 5.0}, {"measurement": "ORYSAT herbicidal effect rating", "setting": "[2]; Rate 0.0625 kg/ha", "value": 6.0}, {"measurement": "ORYSAT herbicidal effect rating", "setting": "[2]; Rate 0.1250 kg/ha", "value": 7.0}, {"measurement": "herbicidal effect rating, CYPSE", "setting": "[3]; 0.2500 kg/ha", "value": 6.0}, {"measurement": "CYPSE herbicidal effect rating", "setting": "[3]; Rate 0.0313 kg/ha", "value": 0.0}, {"measurement": "CYPSE herbicidal effect rating", "setting": "[3]; Rate 0.0625 kg/ha", "value": 0.0}, {"measurement": "CYPSE herbicidal effect rating", "setting": "[3]; Rate 0.1250 kg/ha", "value": 1.0}, {"measurement": "herbicidal effect rating, MOOVA", "setting": "[4]; 0.2500 kg/ha", "value": 7.5}, {"measurement": "MOOVA herbicidal effect rating", "setting": "[4]; Rate 0.0313 kg/ha", "value": 4.0}, {"measurement": "MOOVA herbicidal effect rating", "setting": "[4]; Rate 0.0625 kg/ha", "value": 4.5}, {"measurement": "MOOVA herbicidal effect rating", "setting": "[4]; Rate 0.1250 kg/ha", "value": 5.5}, {"measurement": "herbicidal effect rating, CYPIR", "setting": "Cyperus iria; 0.2500 kg/ha", "value": 8.5}, {"measurement": "CYPIR herbicidal effect rating", "setting": "Cyperus iria; Rate 0.0313 kg/ha", "value": 5.5}, {"measurement": "CYPIR herbicidal effect rating", "setting": "Cyperus iria; Rate 0.0625 kg/ha", "value": 6.5}, {"measurement": "CYPIR herbicidal effect rating", "setting": "Cyperus iria; Rate 0.1250 kg/ha", "value": 8.5}]}]}
